The values below come from patent US8471005B2 (Cephalon, Inc., priority 2008, dated 2013).

The target in experiment [1] is T1, ALK (Homo sapiens, UniProt Q9UM73).
T1 construct: host or cells: baculovirus expression system
Put plainly: ALK Kinase Assay (ELISA/TRF, PLC-γ substrate). The conditions noted are these: ALK Kinase Inhibition; read-out: ALK Potency. Format: biochemical. The essentials: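 PLC-γ coat 10 μg/mL in TBS; ALK 30 ng/ml added to start; 37° C, 15 min; Eu-N1 PT66 antibody detection (TRF). IC50: % inhibition vs log10 [cpd], variable-slope sigmoidal fit.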
Background: In an ELISA, binding on a coated surface is turned into a signal by an enzyme label.

The target of experiment [2] is T2, JAK2 (Homo sapiens, UniProt O60674).
T2 construct: host or cells: baculovirus expression system
T2 sequence (O60674 whole entry): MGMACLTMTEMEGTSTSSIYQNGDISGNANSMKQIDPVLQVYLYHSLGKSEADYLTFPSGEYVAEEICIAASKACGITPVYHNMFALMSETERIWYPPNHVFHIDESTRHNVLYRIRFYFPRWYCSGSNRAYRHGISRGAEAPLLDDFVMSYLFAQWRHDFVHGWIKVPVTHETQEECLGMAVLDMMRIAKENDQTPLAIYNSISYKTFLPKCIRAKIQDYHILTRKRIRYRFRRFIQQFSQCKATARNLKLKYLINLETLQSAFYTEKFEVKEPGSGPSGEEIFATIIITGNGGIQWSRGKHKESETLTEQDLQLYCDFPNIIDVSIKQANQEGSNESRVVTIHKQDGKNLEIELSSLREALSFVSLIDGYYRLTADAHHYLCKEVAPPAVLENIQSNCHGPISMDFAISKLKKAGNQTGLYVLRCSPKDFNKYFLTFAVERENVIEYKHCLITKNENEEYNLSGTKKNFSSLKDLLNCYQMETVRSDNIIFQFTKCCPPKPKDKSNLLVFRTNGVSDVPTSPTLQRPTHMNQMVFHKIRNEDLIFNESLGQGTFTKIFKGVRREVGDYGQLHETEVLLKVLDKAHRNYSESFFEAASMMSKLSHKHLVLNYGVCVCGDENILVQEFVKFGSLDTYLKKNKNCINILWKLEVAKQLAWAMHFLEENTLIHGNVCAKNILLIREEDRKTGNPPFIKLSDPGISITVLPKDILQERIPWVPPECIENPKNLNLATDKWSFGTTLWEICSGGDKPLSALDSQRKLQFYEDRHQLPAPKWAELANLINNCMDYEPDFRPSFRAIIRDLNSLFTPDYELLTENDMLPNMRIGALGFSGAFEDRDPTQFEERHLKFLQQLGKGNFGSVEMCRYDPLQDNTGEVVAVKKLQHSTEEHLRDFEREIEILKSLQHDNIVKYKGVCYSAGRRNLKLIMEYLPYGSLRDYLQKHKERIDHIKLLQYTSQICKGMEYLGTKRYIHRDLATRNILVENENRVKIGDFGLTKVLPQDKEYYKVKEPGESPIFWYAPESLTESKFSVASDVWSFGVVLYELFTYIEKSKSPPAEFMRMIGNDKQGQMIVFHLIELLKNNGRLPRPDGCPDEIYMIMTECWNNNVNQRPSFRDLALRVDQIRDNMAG
Briefly: Recombinant Human JAK2 Kinase Assay (TRF). Format: biochemical. The conditions noted are these: JAK2 Kinase Inhibition; read-out: JAK2 Potency. The essentials:
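Kinase activity of baculovirus-expressed JAK2 is followed on a surface-immobilised biotinylated peptide, with the reaction run for 20 min at room temperature in buffer containing 0.2 μM ATP and manganese. Phosphorylation is read with Eu-N1 PY100 antibody.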

T1 sequence (Q9UM73 19-1620): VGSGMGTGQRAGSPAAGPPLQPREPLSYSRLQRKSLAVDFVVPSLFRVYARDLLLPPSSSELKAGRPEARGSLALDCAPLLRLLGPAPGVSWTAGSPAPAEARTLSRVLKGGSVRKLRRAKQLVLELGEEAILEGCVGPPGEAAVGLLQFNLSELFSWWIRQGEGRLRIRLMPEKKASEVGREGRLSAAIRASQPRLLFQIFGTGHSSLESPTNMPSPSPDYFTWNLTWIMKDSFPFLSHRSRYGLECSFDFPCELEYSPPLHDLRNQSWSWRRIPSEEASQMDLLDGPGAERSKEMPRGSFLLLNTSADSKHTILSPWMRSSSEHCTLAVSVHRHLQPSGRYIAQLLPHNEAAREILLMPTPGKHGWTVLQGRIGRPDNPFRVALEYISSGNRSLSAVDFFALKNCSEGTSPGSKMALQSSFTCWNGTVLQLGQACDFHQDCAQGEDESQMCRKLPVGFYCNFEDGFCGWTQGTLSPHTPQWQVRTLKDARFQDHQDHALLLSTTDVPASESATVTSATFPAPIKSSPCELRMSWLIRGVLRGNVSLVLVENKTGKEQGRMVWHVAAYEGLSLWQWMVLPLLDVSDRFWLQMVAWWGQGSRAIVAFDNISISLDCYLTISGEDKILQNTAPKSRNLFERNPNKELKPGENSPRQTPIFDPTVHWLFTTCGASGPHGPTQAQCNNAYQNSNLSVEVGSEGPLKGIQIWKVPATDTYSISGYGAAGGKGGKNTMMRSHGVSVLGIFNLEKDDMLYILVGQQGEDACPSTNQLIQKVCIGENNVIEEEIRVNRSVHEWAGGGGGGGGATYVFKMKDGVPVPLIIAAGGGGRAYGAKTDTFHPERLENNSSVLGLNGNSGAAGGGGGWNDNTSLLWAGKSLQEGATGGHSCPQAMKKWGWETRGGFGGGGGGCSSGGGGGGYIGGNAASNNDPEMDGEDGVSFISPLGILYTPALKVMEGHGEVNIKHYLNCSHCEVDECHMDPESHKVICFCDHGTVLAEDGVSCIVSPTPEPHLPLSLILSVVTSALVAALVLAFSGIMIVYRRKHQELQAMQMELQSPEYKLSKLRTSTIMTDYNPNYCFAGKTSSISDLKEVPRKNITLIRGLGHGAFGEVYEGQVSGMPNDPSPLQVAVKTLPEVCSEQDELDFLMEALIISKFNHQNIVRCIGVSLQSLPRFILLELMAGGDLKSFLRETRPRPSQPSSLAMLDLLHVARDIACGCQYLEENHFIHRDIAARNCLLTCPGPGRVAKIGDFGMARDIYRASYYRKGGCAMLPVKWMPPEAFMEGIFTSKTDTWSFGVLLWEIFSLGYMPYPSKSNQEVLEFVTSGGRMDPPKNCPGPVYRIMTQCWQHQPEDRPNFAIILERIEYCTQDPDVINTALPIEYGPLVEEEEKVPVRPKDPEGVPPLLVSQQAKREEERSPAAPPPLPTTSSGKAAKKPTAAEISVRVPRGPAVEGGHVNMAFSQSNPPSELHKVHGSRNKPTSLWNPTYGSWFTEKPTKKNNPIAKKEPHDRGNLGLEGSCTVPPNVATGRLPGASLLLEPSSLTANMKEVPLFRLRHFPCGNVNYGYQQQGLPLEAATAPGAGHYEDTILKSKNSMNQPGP

Take `N#Cc1ccc(-c2ccc3cnc(Nc4ccc(N5CCOCC5)cc4)nn23)cn1` [Example 37, 5-[2-(4-Morpholin-4-yl-phenylamino)-pyrrolo[2,1-f][1,2,4]triazin-7-yl]-pyridine-2-carbonitrile]: the IC50 in experiment [1] was 1000 to 10000 nM; in experiment [2], below 100 nM.

With `N#Cc1cccc(-c2ccc3cnc(Nc4ccc(N5CCOCC5)cc4)nn23)c1` [Example 39, 3-[2-(4-Morpholin-4-yl-phenylamino)-pyrrolo[2,1-f][1,2,4]triazin-7-yl]-benzonitrile], the IC50 in experiment [1] is above 10000 nM; in experiment [2] it was below 100 nM.

Regarding `CN1CCN(c2ccc(Nc3ncc4c(-c5ccccc5Cl)ccn4n3)cc2)CC1` [Example 40, [5-(2-Chloro-phenyl)-pyrrolo[2,1-f][1,2,4]triazin-2-yl]-[4-(4-methyl-piperazin-1-yl)-phenyl]-amine], the IC50 in experiment [1] was above 10000 nM; in experiment [2], 1000 to 10000 nM.

On to `CN1CCN(c2ccc(Nc3ncc4c(-c5ccccc5)ccn4n3)cc2)CC1` [Example 41, [4-(4-Methyl-piperazin-1-yl)-phenyl]-(5-phenyl-pyrrolo[2,1-f][1,2,4]triazin-2-yl)-amine], for which the IC50 in experiment [1] was above 10000 nM; in experiment [2], below 100 nM.

As to `COc1ccccc1-c1ccn2nc(Nc3ccc(N4CCN(C)CC4)cc3)ncc12` [Example 42, [5-(2-Methoxy-phenyl)-pyrrolo[2,1-f][1,2,4]triazin-2-yl]-[4-(4-methyl-piperazin-1-yl)-phenyl]-amine], the IC50 in experiment [1] is above 10000 nM; in experiment [2], 100 to 1000 nM.

Turning to `CS(=O)(=O)c1cccc(-c2ccc3cnc(Nc4ccc(N5CCOCC5)cc4)nn23)c1` [Example 43, [7-(3-Methanesulfonyl-phenyl)-pyrrolo[2,1-f][1,2,4]triazin-2-yl]-(4-morpholin-4-yl-phenyl)-amine], the IC50 in experiment [1] is 100 to 1000 nM; in experiment [2], below 100 nM.

As for `CC(C)(C)OC(=O)c1ccc(-c2ccc3cnc(Nc4ccc(N5CCOCC5)cc4)nn23)cc1` [Example 44, 4-[2-(4-Morpholin-4-yl-phenylamino)-pyrrolo[2,1-f][1,2,4]triazin-7-yl]-benzoic acid tert-butyl ester], the IC50 in experiment [1] is above 10000 nM; in experiment [2] it was below 100 nM.

With `O=C(O)c1ccc(-c2ccc3cnc(Nc4ccc(N5CCOCC5)cc4)nn23)cc1` [Example 45, 4-[2-(4-Morpholin-4-yl-phenylamino)-pyrrolo[2,1-f][1,2,4]triazin-7-yl]-benzoic acid], the IC50 was above 10000 nM in experiment [1] and below 100 nM in experiment [2].

In the case of `c1ccc(-c2ccc3cnc(Nc4ccc(N5CCOCC5)nc4)nn23)cc1` [Example 46, (6-Morpholin-4-yl-pyridin-3-yl)-(7-phenyl-pyrrolo[2,1-f][1,2,4]triazin-2-yl)-amine], the IC50 is 1000 to 10000 nM in experiment [1] and below 100 nM in experiment [2].

Take `COc1ccccc1-c1ccc2cnc(Nc3ccc(N4CCOCC4)nc3)nn12` [Example 47, [7-(2-Methoxy-phenyl)-pyrrolo[2,1-f][1,2,4]triazin-2-yl]-(6-morpholin-4-yl-pyridin-3-yl)-amine]: the IC50 in experiment [1] was 100 to 1000 nM; in experiment [2], below 100 nM.

In the case of `COCCN1CCc2cc(Nc3ncc4ccc(-c5ccccc5OC)n4n3)c(OC)cc2CC1` [Example 48, [8-Methoxy-3-(2-methoxy-ethyl)-2,3,4,5-tetrahydro-1H-benzo[d]azepin-7-yl]-[7-(2-methoxy-phenyl)-pyrrolo[2,1-f][1,2,4]triazin-2-yl]-amine], the IC50 in experiment [1] was below 100 nM; in experiment [2], 100 to 1000 nM.

Consider `Clc1cccc(-c2ccc3cnc(Nc4ccc(N5CCCCC5)cc4)nn23)c1` [Example 49, [7-(3-Chloro-phenyl)-pyrrolo[2,1-f][1,2,4]triazin-2-yl]-(4-piperidin-1-yl-phenyl)-amine], for which the results for the IC50 in experiment [1] and in experiment [2] were above 10000 nM and below 100 nM, respectively.

For the compound `c1cc2cnc(Nc3ccc(N4CCOCC4)cc3)nn2c1` [Example 50, (4-Morpholin-4-yl-phenyl)-pyrrolo[2,1-f][1,2,4]triazin-2-yl-amine], the IC50 in experiment [1] is above 10000 nM; in experiment [2] it was below 100 nM.

Take `N#Cc1ccc2cnc(Nc3ccc(N4CCOCC4)cc3)nn12` [Example 51, 2-(4-Morpholin-4-yl-phenylamino)-pyrrolo[2,1-f][1,2,4]triazine-7-carbonitrile]: the IC50 is above 10000 nM in experiment [1] and below 100 nM in experiment [2].

Consider `CN(C)CCNC(=O)c1ccc(-c2ccc3cnc(Nc4ccc(N5CCOCC5)cc4)nn23)cc1` [Example 52, N-(2-Dimethylamino-ethyl)-4-[2-(4-morpholin-4-yl-phenylamino)-pyrrolo[2,1-f][1,2,4]triazin-7-yl]-benzamide], for which the results for the IC50 in experiment [1] and in experiment [2] were 100 to 1000 nM and below 100 nM, respectively.

`O=C(NCCN1CCCC1)c1ccc(-c2ccc3cnc(Nc4ccc(N5CCOCC5)cc4)nn23)cc1` [Example 53, 4-[2-(4-Morpholin-4-yl-phenylamino)-pyrrolo[2,1-f][1,2,4]triazin-7-yl]-N-(2-pyrrolidin-1-yl-ethyl)-benzamide]: the IC50 in experiment [1] was 100 to 1000 nM; in experiment [2], below 100 nM.

Regarding `O=C(NCCCN1CCCC1)c1ccc(-c2ccc3cnc(Nc4ccc(N5CCOCC5)cc4)nn23)cc1` [Example 54, 4-[2-(4-Morpholin-4-yl-phenylamino)-pyrrolo[2,1-f][1,2,4]triazin-7-yl]-N-(3-pyrrolidin-1-yl-propyl)-benzamide], the values for the IC50 in experiment [1] and in experiment [2] were 100 to 1000 nM and below 100 nM, respectively.

As to `CNC(=O)c1ccc(-c2ccc3cnc(Nc4ccc(N5CCOCC5)cc4)nn23)cc1` [Example 55, N-Methyl-4-[2-(4-morpholin-4-yl-phenylamino)-pyrrolo[2,1-f][1,2,4]triazin-7-yl]-benzamide], the IC50 in experiment [1] is 1000 to 10000 nM; in experiment [2], below 100 nM.

Take `O=C(NCCN1CCOCC1)c1ccc(-c2ccc3cnc(Nc4ccc(N5CCOCC5)cc4)nn23)cc1` [Example 56, N-(2-Morpholin-4-yl-ethyl)-4-[2-(4-morpholin-4-yl-phenylamino)-pyrrolo[2,1-f][1,2,4]triazin-7-yl]-benzamide]: the results for the IC50 in experiment [1] and in experiment [2] were 1000 to 10000 nM and below 100 nM, respectively.

For the compound `O=C(NCCCN1CCOCC1)c1ccc(-c2ccc3cnc(Nc4ccc(N5CCOCC5)cc4)nn23)cc1` [Example 57, 4-[2-(4-Morpholin-4-yl-phenylamino)-pyrrolo[2,1-f][1,2,4]triazin-7-yl]-N-(3-morpholin-4-yl-propyl)-benzamide], the IC50 in experiment [1] is 1000 to 10000 nM; in experiment [2] it was below 100 nM.

For the compound `FC(F)(F)c1cc(-c2ccc3cnc(Nc4ccc(N5CCOCC5)cc4)nn23)ccc1Cl` [Example 58, [7-(4-Chloro-3-trifluoromethyl-phenyl)-pyrrolo[2,1-f][1,2,4]triazin-2-yl]-(4-morpholin-4-yl-phenyl)-amine], the IC50 was 1000 to 10000 nM in experiment [1] and below 100 nM in experiment [2].

On to `CN1CCN(c2ccc(Nc3ncc4ccc(-c5ccc(S(C)(=O)=O)cc5)n4n3)cc2)CC1` [Example 59, [7-(4-Methanesulfonyl-phenyl)-pyrrolo[2,1-f][1,2,4]triazin-2-yl]-[4-(4-methyl-piperazin-1-yl)-phenyl]-amine], for which the figures for the IC50 in experiment [1] and in experiment [2] were 100 to 1000 nM and below 100 nM, respectively.

In the case of `CS(=O)(=O)c1ccc(-c2ccc3cnc(Nc4ccc(N5CCOCC5)nc4)nn23)cc1` [Example 60, [7-(4-Methanesulfonyl-phenyl)-pyrrolo[2,1-f][1,2,4]triazin-2-yl]-(6-morpholin-4-yl-pyridin-3-yl)-amine], the IC50 in experiment [1] was 1000 to 10000 nM; in experiment [2], below 100 nM.

On to `CS(=O)(=O)c1ccc(-c2ccc3cnc(Nc4ccc(N5CCCCC5)cc4)nn23)cc1` [Example 61, [7-(4-Methanesulfonyl-phenyl)-pyrrolo[2,1-f][1,2,4]triazin-2-yl]-(4-piperidin-1-yl-phenyl)-amine], for which the IC50 in experiment [1] was above 10000 nM; in experiment [2], below 100 nM.

With `COc1cc(N2CCN(C)CC2)ccc1Nc1ncc2ccc(-c3ccc(S(C)(=O)=O)cc3)n2n1` [Example 62, [7-(4-Methanesulfonyl-phenyl)-pyrrolo[2,1-f][1,2,4]triazin-2-yl]-[2-methoxy-4-(4-methyl-piperazin-1-yl)-phenyl]-amine], the figures for the IC50 in experiment [1] and in experiment [2] were 100 to 1000 nM and below 100 nM, respectively.

Consider `O=S(=O)(c1ccc(-c2ccc3cnc(Nc4ccc(N5CCOCC5)cc4)nn23)cc1)N1CCCC1` [Example 63, (4-Morpholin-4-yl-phenyl)-{7-[4-(pyrrolidine-1-sulfonyl)-phenyl]-pyrrolo[2,1-f][1,2,4]triazin-2-yl}-amine], for which the figures for the IC50 in experiment [1] and in experiment [2] were above 10000 nM and below 100 nM, respectively.

`COc1cc(Nc2ncc3ccc(-c4cccc(Cl)c4)n3n2)ccc1N1CCN(C)CC1` [Example 64, [7-(3-Chloro-phenyl)-pyrrolo[2,1-f][1,2,4]triazin-2-yl]-[3-methoxy-4-(4-methyl-piperazin-1-yl)-phenyl]-amine]: the IC50 in experiment [1] and in experiment [2] was below 100 nM in each case.

On to `COc1cc(Nc2ncc3ccc(-c4cccc(Cl)c4)n3n2)ccc1N1CCOCC1` [Example 65, [7-(3-Chloro-phenyl)-pyrrolo[2,1-f][1,2,4]triazin-2-yl]-(3-methoxy-4-morpholin-4-yl-phenyl)-amine], for which the IC50 in experiment [1] is 100 to 1000 nM; in experiment [2], below 100 nM.

As for `Cc1cc(Nc2ncc3ccc(-c4cccc(Cl)c4)n3n2)ccc1N1CCOCC1` [Example 66, [7-(3-Chloro-phenyl)-pyrrolo[2,1-f][1,2,4]triazin-2-yl]-(3-methyl-4-morpholin-4-yl-phenyl)-amine], the IC50 was 1000 to 10000 nM in experiment [1] and below 100 nM in experiment [2].
